Source: the supplement of paper PMC6315032

How the values were obtained:
Experiment in all cases: apparent dissociation constant (pKDapp, Kinobeads competition, Cheng-Prusoff corrected) (-log10 M); higher = tighter binding
ATM = ATM (UniProt Q13315); details: affinity matrix / lysate: Lipid Kinobeads, mixed HeLa/Jurkat/K-562 lysate
SLK = SLK (UniProt Q9H2G2); details: affinity matrix / lysate: Kinobeads, mixed HEK293/K-562/placenta lysate
NEK7 = NEK7 (UniProt Q8TDX7); details: affinity matrix / lysate: Kinobeads, mixed HEK293/K-562/placenta lysate
EPHA5 = EPHA5 (UniProt P54756); details: affinity matrix / lysate: Kinobeads, mixed HEK293/K-562/placenta lysate
STK39 = STK39 (UniProt Q9UEW8); details: affinity matrix / lysate: Kinobeads, mixed HEK293/K-562/placenta lysate
PRKCB = PRKCB (UniProt P05771); details: affinity matrix / lysate: Kinobeads, mixed HEK293/K-562/placenta lysate
CAMKK2 = CAMKK2 (UniProt Q96RR4); details: affinity matrix / lysate: Kinobeads, mixed HEK293/K-562/placenta lysate
TYRO3 = TYRO3 (UniProt Q06418); details: affinity matrix / lysate: Kinobeads, mixed HEK293/K-562/placenta lysate
PRKDC = PRKDC (UniProt P78527); details: affinity matrix / lysate: Lipid Kinobeads, mixed HeLa/Jurkat/K-562 lysate
FER = FER (UniProt P16591); details: affinity matrix / lysate: Kinobeads, mixed HEK293/K-562/placenta lysate
EPHA2 = EPHA2 (UniProt P29317); details: affinity matrix / lysate: Kinobeads, mixed HEK293/K-562/placenta lysate
LATS1 = LATS1 (UniProt O95835); details: affinity matrix / lysate: Kinobeads, mixed HEK293/K-562/placenta lysate
MAP2K5 = MAP2K5 (UniProt Q13163); details: affinity matrix / lysate: Kinobeads, mixed HEK293/K-562/placenta lysate
AKT2 = AKT2 (UniProt P31751); details: affinity matrix / lysate: Kinobeads, mixed HEK293/K-562/placenta lysate
HCK = HCK (UniProt P08631); details: affinity matrix / lysate: Kinobeads, mixed HEK293/K-562/placenta lysate
HIPK1 = HIPK1 (UniProt Q86Z02); details: affinity matrix / lysate: Kinobeads, mixed HEK293/K-562/placenta lysate
MYLK3 = MYLK3 (UniProt Q32MK0); details: affinity matrix / lysate: Kinobeads, mixed HEK293/K-562/placenta lysate
STK38L = STK38L (UniProt Q9Y2H1); details: affinity matrix / lysate: Kinobeads, mixed HEK293/K-562/placenta lysate
PRKD2 = PRKD2 (UniProt Q9BZL6); details: affinity matrix / lysate: Kinobeads, mixed HEK293/K-562/placenta lysate
PLK1 = PLK1 (UniProt P53350); details: affinity matrix / lysate: Kinobeads, mixed HEK293/K-562/placenta lysate
ITK = ITK (UniProt Q08881); details: affinity matrix / lysate: Kinobeads, mixed HEK293/K-562/placenta lysate
MKNK2 = MKNK2 (UniProt Q9HBH9); details: affinity matrix / lysate: Kinobeads, mixed HEK293/K-562/placenta lysate
KDR = KDR (UniProt P35968); details: affinity matrix / lysate: Kinobeads, mixed HEK293/K-562/placenta lysate
TEC = TEC (UniProt P42680); details: affinity matrix / lysate: Kinobeads, mixed HEK293/K-562/placenta lysate
PIK3CA = PIK3CA (UniProt P42336); details: affinity matrix / lysate: Lipid Kinobeads, mixed HeLa/Jurkat/K-562 lysate
MERTK = MERTK (UniProt Q12866); details: affinity matrix / lysate: Kinobeads, mixed HEK293/K-562/placenta lysate
PKN3 = PKN3 (UniProt Q6P5Z2); details: affinity matrix / lysate: Kinobeads, mixed HEK293/K-562/placenta lysate
CSNK2A2 = CSNK2A2 (UniProt P19784)
CABC1 = CABC1 (UniProt Q8NI60); details: affinity matrix / lysate: Kinobeads, mixed HEK293/K-562/placenta lysate
RPS6KA1 = RPS6KA1 (UniProt Q15418); details: affinity matrix / lysate: Kinobeads, mixed HEK293/K-562/placenta lysate
MAP3K4 = MAP3K4 (UniProt Q9Y6R4); details: affinity matrix / lysate: Kinobeads, mixed HEK293/K-562/placenta lysate
MAP3K7 = MAP3K7 (UniProt O43318); details: affinity matrix / lysate: Kinobeads, mixed HEK293/K-562/placenta lysate
TGFBR2 = TGFBR2 (UniProt P37173); details: affinity matrix / lysate: Kinobeads, mixed HEK293/K-562/placenta lysate
[1] = affinity matrix / lysate: Kinobeads, mixed HEK293/K-562/placenta lysate
[2] = affinity matrix / lysate: Lipid Kinobeads, mixed HeLa/Jurkat/K-562 lysate

SMILES | apparent dissociation constant (-log10 M) (ATM) | apparent dissociation constant (-log10 M) (SLK) | apparent dissociation constant (-log10 M) (NEK7) | apparent dissociation constant (-log10 M) (EPHA5) | apparent dissociation constant (-log10 M) (STK39) | apparent dissociation constant (-log10 M) (PRKCB) | apparent dissociation constant (-log10 M) (CAMKK2) | apparent dissociation constant (-log10 M) (TYRO3) | apparent dissociation constant (-log10 M) (PRKDC) | apparent dissociation constant (-log10 M) (FER) | apparent dissociation constant (-log10 M) (EPHA2) | apparent dissociation constant (-log10 M) (LATS1) | apparent dissociation constant (-log10 M) (MAP2K5) | apparent dissociation constant (-log10 M) (AKT2) | apparent dissociation constant (-log10 M) (HCK) | apparent dissociation constant (-log10 M) (HIPK1) | apparent dissociation constant (-log10 M) (MYLK3) | apparent dissociation constant (-log10 M) (STK38L) | apparent dissociation constant (-log10 M) (PRKD2) | apparent dissociation constant (-log10 M) (PLK1) | apparent dissociation constant (-log10 M) (ITK) | apparent dissociation constant (-log10 M) (MKNK2) | apparent dissociation constant (-log10 M) (KDR) | apparent dissociation constant (-log10 M) (TEC) | apparent dissociation constant (-log10 M) (PIK3CA) | apparent dissociation constant (-log10 M) (MERTK) | apparent dissociation constant (-log10 M) (PKN3) | apparent dissociation constant (-log10 M) (CSNK2A2; [1]) | apparent dissociation constant (-log10 M) (CSNK2A2; [2]) | apparent dissociation constant (-log10 M) (CABC1) | apparent dissociation constant (-log10 M) (RPS6KA1) | apparent dissociation constant (-log10 M) (MAP3K4) | apparent dissociation constant (-log10 M) (MAP3K7) | apparent dissociation constant (-log10 M) (TGFBR2)
COc1ccc(-c2ccc3c(N4CCOC[C@@H]4C)nc(N4CCOC[C@@H]4C)nc3n2)cc1CO [AZD8055] | 6.36 | < 6 | < 6 | < 6 | < 6 | < 6 | < 6 | < 6 | 6.18 | < 6 | < 6 | < 6 | < 6 | < 6 | < 6 | < 6 | < 6 | < 6 | < 6 | < 6 | < 6 | < 6 | < 6 | < 6 | 7.17 | < 6 | < 6 | < 6 | < 6 | < 6 | < 6 | < 6 | < 6 | < 6
CCNC(=O)Nc1ccc(-c2nc(N3CCOC[C@@H]3C)c3c(n2)C(C)(C)S(=O)(=O)C3)cc1 [CZ415] | < 6 | < 6 | < 6 | < 6 | < 6 | < 6 | < 6 | < 6 | < 6 | < 6 | < 6 | < 6 | < 6 | < 6 | < 6 | < 6 | < 6 | < 6 | < 6 | < 6 | < 6 | < 6 | < 6 | < 6 | < 6 | < 6 | < 6 | < 6 | < 6 | < 6 | < 6 | < 6 | < 6 | < 6
